“Also recorded” adds a separate entry of the source. Non-standard residues stand in square brackets, D forms with d. No end group written: not given here.
Legend:
Chung model rats = assay: Tactile allodynia (von Frey, 50% paw withdrawal threshold) after bolus intrathecal injection in Chung model rats; assay type: in vivo, rat
Procedure: Each of the three peptides were obtained in pure form by chemical synthesis, dissolved in sterile PBS and buffered to a neutral pH.
The surgical procedure previously described by Kim and Chung, supra (1992) was performed on male Sprague-Dawley rats weighing 120 to 150 grams to induce an allodynic state. Briefly, the rats were anesthetized with halothane; subsequently, the left L-5 and L-6 spinal nerves were isolated adjacent to the vertebral column and ligated with 6.0 silk suture distal to the dorsal root ganglion.
After a ten to fourteen day post operative recovery period, a spinal catheter was introduced. Five days following the second surgery, intrathecal drug administration was accomplished using a gear driven micro-injection syringe connected to a spinal catheter inserted through the foramen magnum. Prior to testing, the rats were placed in clear plastic wire meshed cages and allowed to acclimate.
To assess the 50% mechanical threshold for paw withdrawal, a von Frey hair was applied to the hind foot avoiding the foot pad. Each of the von Frey hairs, which are calibrated to bend at increasing log forces, were pressed perpendicularly to the foot with sufficient force to cause slight bending for a duration of approximately six to eight seconds. A positive response was noted if the foot was sharply withdrawn. Six data points were collected for each point with the maximum and minimum stimulus noted for each time point. The resulting pattern of the responses was tabulated, and the 50% response threshold was computed. The graph gives the response to the indicated dosage of peptide given as a single intrathecal bolus injection. The X-axis indicates the time after the injection at which point the hypersensitivity to pressure on the foot pad was measured.

[1] = system: NS20Y neuroblastoma cells; assay: Neurite outgrowth in NS20Y neuroblastoma cells; assay type: cell-based
Procedure: NS20Y neuroblastoma cells are grown in Dulbecco's modified Eagle medium (DMEM) containing 10% fetal calf serum (FCS). Cells are removed with trypsin and plated in 30 mm petri dishes onto glass coverslips. […] Cells are cultured for an additional 24 hours, washed with PBS and fixed with Bouin's solution (saturated aqueous picric acid/formalin/acetic acid 15:5:1) for 30 minutes. After fixative is removed with PBS, neurite outgrowth is scored under a phase contrast microscope. […] At least 200 cells are scored in different positions of each dish to determine the percentage of neurite bearing cells with each peptide assayed in duplicate.

control rats = assay: Formalin test in control rats; assay type: in vivo, rat; conditions: single bolus doses of up to 1 mg/kg i.p. 30 min pre-test
taxol-treated mice = assay: Loss of thermal sensation (Hargreaves) in taxol-treated mice; assay type: in vivo, mouse; conditions: 100 μg/kg, 200 μg/kg or 1 mg/kg
Procedure: Mice were administered taxol in order to induce sensory neuropathy.
The loss of thermal sensation was measured using a Hargreaves sensory testing apparatus as an indicator of sensory neuropathy.

NS20Y cells = assay: Neural cell death (trypan blue) in NS20Y cells; assay type: cell-based; conditions: 8 ng/ml, 2 days in 0.5% fetal bovine serum
Procedure: Media is removed and 0.2% trypan blue in PBS is added to each well. Dead cells stain blue with the trypan blue dye and are scored as a percentage of the total on an inverted microscope, counting 400 cells in four areas of each well. The average error of duplicates is ±5%.

For T[dA]LIDNNATEEILY [SEQ ID NO:2], the “time of maximum (peak) effect post-injection” value (Chung model rats; intrathecal bolus) was 15 to 30 min, the “time of return to the pre-injection value” (Chung model rats; intrathecal bolus, FIG. 2) was at most 60 min and the “tactile allodynia (force threshold)” value (Chung model rats; intrathecal bolus, doses of FIG. 2) was “effective in reducing allodynia”. For the same substance, the “activity in alleviating neuropathic pain as assayed using Chung rats” value (Chung model rats; summary statement) was “reduces the painful allodynia; also recorded: alleviate neuropathic pain”, the “neurite outgrowth (percentage of neurite bearing cells)” value ([1]; 24 hours, compared to a scrambled control peptide) was “significantly increases neurite outgrowth” and the “concentration at which increased neurite outgrowth is evident” value ([1]; as little as) was 0.5 ng/mL. The “responses to formalin in control rats” value (control rats) was “without effect on responses to formalin”, the “loss of thermal sensation” value (taxol-treated mice) was “effective in inhibiting loss of thermal sensation” and the “number of trypan blue-positive (dead) cells” value (NS20Y cells) was “substantially reduces the number of trypan blue-positive (dead) cells”.

— US6849602B1 (The Regents of the University of California, priority 1996, dated 2005)
